The molecules below were run on multiresistant Dd2 strain of Plasmodium falciparum (assay: Antiplasmodial activity against Dd2 strain of Plasmodium falciparum ([8-3H]hypoxanthine incorporation)). Conditions: 66 h, P. falciparum Dd2, 48 h + 18 h with [8-3H]hypoxanthine, 50% parasite growth inhibition, read-out: Antiplasmodia activity (IC50 class).
Assay type: cell-based
Description: For the determination of the antiplasmodial activity of the compounds described above, the multiresistant Dd2 strain of Plasmodium falciparum was used. The incorporation of [8-^3H]hypoxanthine into the parasitic nucleic acids was measured. The plasmodia were incubated at 0.3% parasitaemia and an erythrocyte haematocrit of 2.5% in the presence of different concentrations of the compounds in a final volume of 200 μl. The medium employed was RPMI 1640 which contained 10% of heat-treated human serum and 3 mg/l of gentamycin. In the incubations, the concentrations of the compounds varied from 0.001 to 100 μM. After 48 h, each batch was treated with 50 μl of [8-^3H]hypoxanthine (1 mCi/ml) and incubated for a further 18 h. The cells were filtered off, washed and suspended in 20 μl of scintillation fluid. The radioactive hypoxanthine absorbed by the parasites was then quantified using a scintillation counter. The results were presented graphically and the IC50 value was determined using a fitting function. The value IC50, the ‘inhibition constant’, indicates the value in μMol/l at which 50% parasite growth inhibition occurs (R. E. Desjardins, et al., Antimicrobiol. Agent Chemother. 16, pp. 710-718, 1979; J. D. Chulay, et al., Exp. Parasitol. 55, pp. 138-146, 1983).
`CCCCN1CCN(C(=N)c2cccc(NC(=O)Nc3ccc(S(=O)(=O)NCc4ccccc4)cc3)c2)CC1` [Compound 36, N-benzyl-4-(3-(3-((4-butylpiperazin-1-yl)(imino)methyl)phenyl)ureido)benzenesulfonamide] gave an IC50 of 210 to 990 nM.
For `C=CCN1CCN(C(=N)c2cccc(NC(=O)Nc3ccc(S(=O)(=O)NCc4ccc(S(N)(=O)=O)cc4)cc3)c2)CC1` [Compound 39, 4-(3-(3-((4-allylpiperazin-1-yl)(imino)methyl)phenyl)ureido)-N-(4-sulfamoylbenzyl)benzenesulfonamide], the IC50 was less than 20 nM.
For `CCCCN1CCN(C(=N)c2cccc(NC(=O)Nc3ccc(S(=O)(=O)NNc4ccc(S(N)(=O)=O)cc4)cc3)c2)CC1` [Compound 40, 4-(2-(4-(3-(3-((4-butylpiperazin-1-yl)(imino)methyl)phenyl)ureido)phenylsulfonyl)hydrazinyl)benzenesulfonamide], the IC50 was no less than 1000 nM.
`CCCCN1CCN(C(=N)c2cccc(NC(=O)Nc3ccc(S(=O)(=O)NC(C)c4ccc(S(N)(=O)=O)cc4)cc3)c2)CC1` (centres unmarked) [Compound 42, 4-(3-(3-((4-butylpiperazin-1-yl)(imino)methyl)phenyl)ureido)-N-(1-(4-sulfamoylphenyl)ethyl)benzenesulfonamide] was tested, and the IC50 was 210 to 990 nM.
`N=C(c1cccc(NC(=O)Nc2ccc(S(=O)(=O)NCc3ccc(S(N)(=O)=O)cc3)cc2)c1)N1CCN(Cc2ccncc2)CC1` [Compound 45, 4-(3-(3-(imino (4-(pyridin-4-ylmethyl)piperazin-1-yl)methyl)phenyl)ureido)-N-(4-sulfamoylbenzyl)benzenesulfonamide] gave an IC50 of 210 to 990 nM.
In the case of `N=C(c1cccc(NC(=O)Nc2ccc(S(=O)(=O)NCc3ccc(S(N)(=O)=O)cc3)cc2)c1)N1CCCC1` [Compound 46, 4-(3-(3-(imino(pyrrolidin-1-yl)methyl)phenyl)ureido)-N-(4-sulfamoylbenzyl)benzenesulfonamide], the IC50 is reported as 20 to 200 nM.
With `CCN(CC)CCN(C)C(=N)c1cccc(NC(=O)Nc2ccc(S(=O)(=O)NCc3ccc(S(N)(=O)=O)cc3)cc2)c1` [Compound 47, N-(2-(diethylamino)ethyl)-N-methyl-3-(3-(4-(N-(4-sulfamoylbenzyl)sulfamoyl)phenyl)ureido)benzimidamide] the IC50 was 20 to 200 nM.
`N=C(c1cccc(NC(=O)Nc2ccc(S(=O)(=O)NCc3ccc(S(N)(=O)=O)cc3)cc2)c1)N1CCC(O)CC1` [Compound 48, 4-(3-(3-((4-hydroxypiperidin-1-yl)(imino)methyl)phenyl)ureido)-N-(4-sulfamoylbenzyl)benzenesulfonamide] showed an IC50 of 20 to 200 nM.
`CN(C)C1CCN(C(=N)c2cccc(NC(=O)Nc3ccc(S(=O)(=O)NCc4ccc(S(N)(=O)=O)cc4)cc3)c2)C1` (centres unmarked) [Compound 49, 4-(3-(3-((3-(dimethylamino)pyrrolidin-1-yl)(imino)methyl)phenyl)ureido)-N-(4-sulfamoylbenzyl)benzenesulfonamide] gave an IC50 of 20 to 200 nM.
With `N=C(c1cccc(NC(=O)Nc2ccc(S(=O)(=O)NCc3ccc(S(N)(=O)=O)cc3)cc2)c1)N1CCCC1CN1CCCC1` (centres unmarked) [Compound 50, 4-(3-(3-(imino(2-(pyrrolidin-1-ylmethyl)pyrrolidin-1-yl)methyl)phenyl)ureido)-N-(4-sulfamoylbenzyl)benzenesulfonamide] the IC50 was 20 to 200 nM.
`CC(C)(C)OC(=O)N1CCN(C(=N)c2cccc(NC(=O)Nc3ccc(S(=O)(=O)NCc4ccc(S(N)(=O)=O)cc4)cc3)c2)CC1` [Compound 51, tert-butyl 4-(imino(3-(3-(4-(N-(4-sulfamoylbenzyl)sulfamoyl)phenyl)ureido)phenyl)methyl)piperazine-1-carboxylate] was tested, and the IC50 was 210 to 990 nM.
`CCCCCN1CCN(C(=N)c2cccc(NC(=O)Nc3ccc(S(=O)(=O)NCc4ccc(S(N)(=O)=O)cc4)cc3)c2)CC1` [Compound 55, 4-(3-(3-(imino(4-pentylpiperazin-1-yl)methyl)phenyl)ureido)-N-(4-sulfamoylbenzyl)benzenesulfonamide] gave an IC50 of less than 20 nM.
`CCCCCCCN1CCN(C(=N)c2cccc(NC(=O)Nc3ccc(S(=O)(=O)NCc4ccc(S(N)(=O)=O)cc4)cc3)c2)CC1` [Compound 56, 4-(3-(3-((4-heptylpiperazin-1-yl)(imino)methyl)phenyl)ureido)-N-(4-sulfamoylbenzyl)benzenesulfonamide] was tested, and the IC50 was 20 to 200 nM.
For `CC(=O)N1CCN(C(=N)c2cccc(NC(=O)Nc3ccc(S(=O)(=O)NCc4ccc(S(N)(=O)=O)cc4)cc3)c2)CC1` [Compound 57, 4-(3-(3-((4-acetylpiperazin-1-yl)(imino)methyl)phenyl)ureido)-N-(4-sulfamoylbenzyl)benzenesulfonamide], the IC50 was 20 to 200 nM.
In the case of `CCCCC(=O)N1CCN(C(=N)c2cccc(NC(=O)Nc3ccc(S(=O)(=O)NCc4ccc(S(N)(=O)=O)cc4)cc3)c2)CC1` [Compound 59, 4-(3-(3-(imino(4-pentanoylpiperazin-1-yl)methyl)phenyl)ureido)-N-(4-sulfamoylbenzyl)benzenesulfonamide], the IC50 is reported as 20 to 200 nM.
Molecule `CCOC(=O)N1CCN(C(=N)c2cccc(NC(=O)Nc3ccc(S(=O)(=O)NCc4ccc(S(N)(=O)=O)cc4)cc3)c2)CC1` [Compound 61, ethyl 4-(imino(3-(3-(4-(N-(4-sulfamoylbenzyl)sulfamoyl)phenyl)ureido)phenyl)methyl)piperazine-1-carboxylate] has an IC50 of less than 20 nM.
Molecule `CCCOC(=O)N1CCN(C(=N)c2cccc(NC(=O)Nc3ccc(S(=O)(=O)NCc4ccc(S(N)(=O)=O)cc4)cc3)c2)CC1` [Compound 62, propyl 4-(imino(3-(3-(4-(N-(4-sulfamoylbenzyl)sulfamoyl)phenyl)ureido)phenyl)methyl)piperazine-1-carboxylate] has an IC50 of less than 20 nM.
Work on `N=C(c1cccc(NC(=O)Nc2ccc(S(=O)(=O)NCc3ccc(S(N)(=O)=O)cc3)cc2)c1)N1CCN(CC2OCCO2)CC1` [Compound 67, 4-(3-(3-((4-((1,3-dioxolan-2-yl)methyl)piperazin-1-yl)(imino)methyl)phenyl)ureido)-N-(4-sulfamoylbenzyl)benzene sulfonamide] yielded an IC50 of 20 to 200 nM.
For `N=C(c1cccc(NC(=O)Nc2ccc(S(=O)(=O)NCc3ccc(S(N)(=O)=O)cc3)cc2)c1)N1CCN(CC2CCCO2)CC1` (centres unmarked) [Compound 68, 4-(3-(3-(imino(4-((tetrahydrofuran-2-yl)methyl)piperazin-1-yl)methyl)phenyl)ureido)-N-(4-sulfamoylbenzyl)benzene sulfonamide], the IC50 was 20 to 200 nM.
`CCCCN1CCN(C(=N)c2ccc(NC(=O)Nc3ccc(S(=O)(=O)NCc4ccc(S(N)(=O)=O)cc4)cc3)cc2)CC1` [Compound 71, 4-(3-(4-((4-butylpiperazin-1-yl)(imino)methyl)phenyl)ureido)-N-(4-sulfamoylbenzyl)benzene sulfonamide] showed an IC50 of 20 to 200 nM.
